According to patent publication US10105357B2, “Indication of antibiotic drugs for preparation of cancer inhibition pharmaceutical composition” (LAUNX BIOMEDICAL CO., LTD., priority 2014, dated 2018):
Where two headings read alike, the source gives them in different places.

Legend:
T24 = assay: Cell viability analysis, bladder cancer T24; assay type: cell-based, human; conditions: Homo sapiens, T-24, 72 h; T24; repeated experiment; read-out: The results of antibiotic drug inhibiting cancer cell lines (cell viability analysis), T24
[1] = tested on: PC3 (p53−) (Prostate Adenocarcinoma); assay: Cell viability analysis, prostate cancer PC3; assay type: cell-based, human; conditions: Homo sapiens, 72 h
[2] = tested on: HCT116 (p53+) (Colorectal Carcinoma)
[3] = tested on: HeLa (Cervix Adenocarcinoma); assay: Cell viability analysis, cervical cancer HeLa; assay type: cell-based, human; conditions: Homo sapiens, HeLa, 72 h, HeLa
[4] = tested on: MKN-45 (Gastric Adenocarcinoma); assay: Cell viability analysis, gastric cancer MKN-45; assay type: cell-based, human; conditions: Homo sapiens, MKN-45, 72 h
[5] = tested on: A549 (Lung Adenocarcinoma); assay: Cell viability analysis, lung cancer A549; assay type: cell-based, human; conditions: Homo sapiens, A549, 72 h
[6] = tested on: LoVo (Colorectal Adenocarcinoma); assay: Cell viability analysis, colon cancer LoVo; assay type: cell-based, human; conditions: Homo sapiens, LoVo, 72 h
TOV-21G = assay: Cell viability analysis, ovarian cancer TOV-21G; assay type: cell-based, human; conditions: Homo sapiens, TOV21G, 72 h; TOV-21G; repeated experiment; read-out: The results of antibiotic drug inhibiting cancer cell lines (cell viability analysis), TOV-21G
[7] = tested on: Hep3B (hepatocellular carcinoma); assay: Cell viability analysis, hepatic cancer Hep3B; assay type: cell-based, human; conditions: Homo sapiens, 72 h; Hep3B; repeated experiment; read-out: The results of antibiotic drug inhibiting cancer cell lines (cell viability analysis), Hep3B
AsPC-1 = assay: Cell viability analysis, pancreatic cancer AsPC-1; assay type: cell-based, human; conditions: Homo sapiens, ASPC1, 72 h; AsPC-1; repeated experiment; read-out: The results of antibiotic drug inhibiting cancer cell lines (cell viability analysis), AsPC-1
[8] = tested on: TSGH-8301 (Urinary Bladder Carcinoma); assay: Cell viability analysis, bladder cancer TSGH-8301; assay type: cell-based, human; conditions: Homo sapiens, 72 h
[9] = tested on: MCF7 (Mammary Gland, Adenocarcinoma); assay: Cell viability analysis, breast cancer MCF7; assay type: cell-based, human; conditions: Homo sapiens, MCF7, 72 h
[10] = tested on: 786-O (Renal adenocarcinoma); assay: Cell viability analysis, renal cancer 786-O; assay type: cell-based, human; conditions: Homo sapiens, 786-0, 72 h; 786-O; repeated experiment; read-out: The results of antibiotic drug inhibiting cancer cell lines (cell viability analysis), 786-O
[11] = tested on: HI650 (Lung Adenocarcinoma); assay: Cell viability analysis, lung cancer HI650; assay type: cell-based, human; conditions: Homo sapiens, NCI-H1650, 72 h
[12] = tested on: BCC (basal cell carcinoma); assay: Cell viability analysis, skin cancer BCC; assay type: cell-based, human; conditions: Homo sapiens, 72 h; BCC; repeated experiment; read-out: The results of antibiotic drug inhibiting cancer cell lines (cell viability analysis), BCC
cancer cell lines = assay: Cell viability analysis (WST-1) on cancer cell lines; assay type: cell-based, human; conditions: drug 10 μM, 72 hours, WST-1; Table 3
[13] = tested on: MDA-MB-231 (Mammary Gland, Adenocarcinoma); assay: Cell viability analysis, breast cancer MDA-MB-231; assay type: cell-based, human; conditions: Homo sapiens, MDA-MB-231, 72 h; MDA-MB231; repeated experiment; read-out: The results of antibiotic drug inhibiting cancer cell lines (cell viability analysis), MDA-MB231
[14] = tested on: AGS (Gastric Adenocarcinoma); assay: Cell viability analysis, gastric cancer AGS; assay type: cell-based, human; conditions: Homo sapiens, 72 h
BxPC-3 = assay: Cell viability analysis, pancreatic cancer BxPC-3; assay type: cell-based, human; conditions: Homo sapiens, 72 h; BxPC-3; repeated experiment; read-out: The results of antibiotic drug inhibiting cancer cell lines (cell viability analysis), BxPC-3
NIH: OVCAR-3 = assay: Cell viability analysis, ovarian cancer NIH: OVCAR-3; assay type: cell-based, human; conditions: Homo sapiens, 72 h; NIH-OVCAR-3; repeated experiment; read-out: The results of antibiotic drug inhibiting cancer cell lines (cell viability analysis), NIH-OVCAR-3
[15] = tested on: HL-60 (Acute Promyelocytic Leukemia); assay: Cell viability analysis, leukemia HL-60; assay type: cell-based, human; conditions: Homo sapiens, HL-60, 72 h, drug 10 μM, 72 hours, WST-1, OD450 nm; read-out: cell viability (survival rate), HL-60
U-2OS = assay: Cell viability analysis, osteosarcoma U-2OS; assay type: cell-based, human; conditions: Homo sapiens, 72 h; U2OS; repeated experiment; read-out: The results of antibiotic drug inhibiting cancer cell lines (cell viability analysis), U2OS
[16] = tested on: HepG2 (Hepatocellular Carcinoma); assay: Cell viability analysis, hepatic cancer HepG2; assay type: cell-based, human; conditions: Homo sapiens, HepG2, 72 h
[17] = tested on: A375 (Amelanotic Melanoma); assay: Cell viability analysis, skin cancer A375; assay type: cell-based, human; conditions: Homo sapiens, A-375, 72 h
[18] = tested on: SAS (Tongue squamous cell carcinoma); assay: Cell viability analysis, tongue cancer SAS; assay type: cell-based, human; conditions: Homo sapiens, 72 h; SAS; repeated experiment; read-out: The results of antibiotic drug inhibiting cancer cell lines (cell viability analysis), SAS
[19] = tested on: C-33A (Cervical carcinoma); assay: Cell viability analysis, cervical cancer C-33A; assay type: cell-based, human; conditions: Homo sapiens, 72 h; C-33A; repeated experiment; read-out: The results of antibiotic drug inhibiting cancer cell lines (cell viability analysis), C-33A
[20] = PC-3, repeated experiment, read-out: The results of antibiotic drug inhibiting cancer cell lines (cell viability analysis), PC-3
[21] = drug 10 μM, 72 hours, WST-1, OD450 nm, read-out: cell viability (survival rate), PC3
[22] = repeated experiment, read-out: The results of antibiotic drug inhibiting cancer cell lines (cell viability analysis), HeLa
[23] = MKN-45, repeated experiment, read-out: The results of antibiotic drug inhibiting cancer cell lines (cell viability analysis), MKN-45
[24] = drug 10 μM, 72 hours, WST-1, OD450 nm, read-out: cell viability (survival rate), MKN-45
[25] = A549, repeated experiment, read-out: The results of antibiotic drug inhibiting cancer cell lines (cell viability analysis), A549
[26] = drug 10 μM, 72 hours, WST-1, OD450 nm, read-out: cell viability (survival rate), A549
[27] = read-out: The results of antibiotic drug inhibiting cancer cell lines (cell viability analysis), LoVo, repeated experiment
[28] = TSGH-8301, repeated experiment, read-out: The results of antibiotic drug inhibiting cancer cell lines (cell viability analysis), TSGH-8301
[29] = drug 10 μM, 72 hours, WST-1, OD450 nm, read-out: cell viability (survival rate), TSGH
[30] = MCF-7, repeated experiment, read-out: The results of antibiotic drug inhibiting cancer cell lines (cell viability analysis), MCF-7
[31] = drug 10 μM, 72 hours, WST-1, OD450 nm, read-out: cell viability (survival rate), MCF7
[32] = H1650, repeated experiment, read-out: The results of antibiotic drug inhibiting cancer cell lines (cell viability analysis), H1650
[33] = drug 10 μM, 72 hours, WST-1, OD450 nm, read-out: cell viability (survival rate), H1650
[34] = AGS, repeated experiment, read-out: The results of antibiotic drug inhibiting cancer cell lines (cell viability analysis), AGS
[35] = drug 10 μM, 72 hours, WST-1, OD450 nm, read-out: cell viability (survival rate), AGS
[36] = HepG2, repeated experiment, read-out: The results of antibiotic drug inhibiting cancer cell lines (cell viability analysis), HepG2
[37] = drug 10 μM, 72 hours, WST-1, OD450 nm, read-out: cell viability (survival rate), HepG2
[38] = A375, repeated experiment, read-out: The results of antibiotic drug inhibiting cancer cell lines (cell viability analysis), A375
[39] = drug 10 μM, 72 hours, WST-1, OD450 nm, read-out: cell viability (survival rate), A375

CC(C)c1nc(N(C)S(C)(=O)=O)nc(-c2ccc(F)cc2)c1/C=C/[C@@H](O)C[C@@H](O)CC(=O)O [Rosuvastatin calcium (Crestor), Rosuvastatin calcium]
viability at 10 µM (T24): 75.9% | viability at 10 µM [1, 20]: 95.7% | viability at 10 µM [1, 21]: 94.3% | viability [2]: 85.6% | viability at 10 µM [3, 22]: 97.1% | viability at 10 µM [4, 23]: 110% | viability at 10 µM [4, 24]: 83.8% | viability at 10 µM [5, 25]: 95.1% | viability at 10 µM [5, 26]: 97% | viability at 10 µM [6, 27]: 103% | viability at 10 µM (TOV-21G): 80.4% | viability at 10 µM [7]: 109% | viability at 10 µM (AsPC-1): 80.2% | viability at 10 µM [8, 28]: 113% | viability at 10 µM [8, 29]: 56% | viability at 10 µM [9, 30]: 85.9% | viability at 10 µM [9, 31]: 88.9% | viability at 10 µM [10]: 92.5% | viability at 10 µM [11, 32]: 76.7% | viability at 10 µM [11, 33]: 80.8% | viability at 10 µM [12]: 104% | inhibition effect on different cancer cell lines (cancer cell lines): significant inhibition effect | viability at 10 µM [13]: 90.2% | viability at 10 µM [14, 34]: 104% | viability at 10 µM [14, 35]: 55.9% | viability at 10 µM (BxPC-3): 65.5% | viability at 10 µM (NIH: OVCAR-3): 102% | viability at 10 µM [15]: 81.7% | viability at 10 µM (U-2OS): 102% | viability at 10 µM [16, 36]: 108% | viability at 10 µM [16, 37]: 73.7% | viability at 10 µM [17, 38]: 105% | viability at 10 µM [17, 39]: 55.6% | viability at 10 µM [18]: 93.3%

CC(C)CN(C[C@@H](O)[C@H](Cc1ccccc1)NC(=O)O[C@H]1CCOC1)S(=O)(=O)c1ccc(N)cc1 [Amprenavir (Agenerase), Amprenavir]
viability at 10 µM (T24): 90.5% | viability at 10 µM [1, 20]: 87.4% | viability at 10 µM [1, 21]: 80.4% | viability [2]: 94.5% | viability at 10 µM [3, 22]: 67.9% | viability at 10 µM ([3]; drug 10 μM, 72 hours, WST-1, OD450 nm, read-out: cell viability (survival rate), HeLa): 67.5% | viability at 10 µM [4, 23]: 103% | viability at 10 µM [4, 24]: 52.1% | viability at 10 µM [5, 25]: 79.9% | viability at 10 µM [5, 26]: 53.7% | viability at 10 µM [6, 27]: 95.5% | viability at 10 µM ([6]; read-out: cell viability (survival rate), LoVo, drug 10 μM, 72 hours, WST-1, OD450 nm): 77.4% | viability at 10 µM (TOV-21G): 97% | viability at 10 µM [7]: 95.2% | viability at 10 µM (AsPC-1): 90.4% | viability at 10 µM [8, 28]: 96.1% | viability at 10 µM [8, 29]: 57% | viability at 10 µM [9, 30]: 68.3% | viability at 10 µM [9, 31]: 37% | viability at 10 µM [10]: 96.7% | viability at 10 µM [11, 32]: 88.1% | viability at 10 µM [11, 33]: 69.5% | viability at 10 µM [12]: 74.5% | inhibition effect on different cancer cell lines (cancer cell lines): significant inhibition effect | viability at 10 µM [13]: 83.5% | viability at 10 µM [14, 34]: 98.6% | viability at 10 µM [14, 35]: 58.8% | viability at 10 µM (NIH: OVCAR-3): 106% | viability at 10 µM [15]: 111% | viability at 10 µM [19]: 109% | viability at 10 µM [16, 36]: 94.5% | viability at 10 µM [16, 37]: 90.9% | viability at 10 µM [17, 38]: 88.1% | viability at 10 µM [17, 39]: 77.6% | viability at 10 µM [18]: 83.3%
